Each structure is given as a SMILES string. ≈ marks a conversion by molar mass, not a printed value. Like-named read-outs stand apart in the source and are kept apart here.

The record followed here is patent EP0072137A1, “Antiviral deoxyuridine compounds” (BEECHAM GROUP PLC, priority 1981, dated 1983).

Data set [1] in a line: In vivo blood level study: antiviral activity of mouse serum titrated in plaque inhibition assays. Also on record: species or system Balb/c mice. As to the method:
Single 100 mg/kg doses of the compound were administered orally as suspensions in carboxymethyl cellulose to groups of 3 starved female Balb/c mice. Blood was collected 120 minutes after dosing and the serum separated and stored at -20°C. Heat inactivated sera from single mice were titrated in plaque inhibition assays using the KOS strain of Herpes simplex type 1 virus in Vero cell monolayers. Antiviral activity is calculated by extrapolation from a standard inhibition dose response curve for E-5-(2-bromovinyl)-2'-deoxyuridine and is quoted as the equivalent concentration of E-5-(2-bromovinyl)-2'-deoxyuridine (in ug/mL) giving the same antiviral activity in cell culture.

Data set [2] has as its system Herpes simplex type 1 virus (HFEM strain). Kind of data set: Plaque reduction assay in cell culture. It is filed as cell-based. The note with it: Human alphaherpesvirus 1, 144 h; concentration causing a 50% reduction in the number of virus plaques; HSV-1 HFEM strain in Vero cells, 37°C, 6 days; read-out: PDD50 (the source's name). On the procedure: (§1) Vero (African Green Monkey Kidney) cells were grown to confluence in 6 well multidishes, each well being 3.5 cm in diameter. The cells were incubated with Herpes simplex type 1 virus (HFEM strain) and overlaid with 0.5 ml of 0.9% agarose (w/v) in maintenance medium containing the test compound at a range of concentrations from 100 pg/mL in half-log dilution steps. The virus infected cultures were then incubated at 37°C for 6 days before fixing in 4% formaldehyde solution and staining with carbolfuchsin. The dishes were then examined to find what concentration of test compound causing a 50% reduction in the number of virus plaques formed (PDD50 value) and the minimum concentration of test compound which killed the cell monolayer, leaving a clear zone devoid of cells and virus plaques (MTD).
For orientation: Plaques are areas of infected cells; plaque reduction assays count them against a control.

A short description of data set [3]: Toxicity to the cell monolayer (MTD) in the plaque reduction assay. It counts as cell-based. The note with it: monkey; minimum concentration which killed the cell monolayer; Vero cells, 6 days. On the procedure: as §1

In the case of `O=c1[nH]c(=O)n([C@H]2C[C@H](O)[C@@H](CO)O2)cc1/C=C/Br` [E-5-(2-bromo-vinyl)-2'-deoxyuridine, E-5-(2-bromovinyl)-2'-deoxyuridine, reference compound], the concentration at 2 h in data set [1] (single 100 mg/kg oral dose, suspension in carboxymethyl cellulose, starved female Balb/c mice, 120 minutes after dosing, HSV-1 KOS in Vero cell monolayers, read-out: Antiviral activity in serum, as equivalent concentration of E-5-(2-bromovinyl)-2'-deoxyuridine) is 1700 ± 500 ng/mL.
`Cn1c(=O)c(/C=C/Br)cn([C@H]2C[C@H](O)[C@@H](CO)O2)c1=O` [Example 1, E-3-methyl-5-(2-bromovinyl)-2'-deoxyuridine]: in data set [2], the EC50 was found to be 5.4 µg/mL (≈ 15.6 µM). The same compound registered an MCC at 144 h in data set [3] above 100 µg/mL. Further, the concentration at 2 h in data set [1] (po, 100 mg/kg) is 3100 ± 800 ng/mL.
